# Test results taken from ChEMBL document CHEMBL4346705, “(±)-trans-Dihydronarciclasine and (±)-trans-dihydrolycoricidine analogues modified in their ring A: Evaluation of their anticancer activity and a SAR study” (2019).
# Columns and labels:
# Format in all cases: functional
# [1] = system: HCT-116; assay: Antiproliferative activity against human HCT116 cells assessed as cell viability at 10^-5 M incubated for 48 hrs by sulforhodamine B assay relative to control; conditions: HCT-116, 48 h, read-out: Activity
# [2] = system: HOP-92; assay: Antiproliferative activity against human HOP92 cells assessed as cell viability at 10^-5 M incubated for 48 hrs by sulforhodamine B assay relative to control; conditions: HOP-92, 48 h, read-out: Activity
# [3] = system: NCI-H23; assay: Antiproliferative activity against human NCI-H23 cells assessed as cell viability at 10^-5 M incubated for 48 hrs by sulforhodamine B assay relative to control; conditions: NCI-H23, 48 h, read-out: Activity
# [4] = system: OVCAR-3; assay: Antiproliferative activity against human OVCAR3 cells assessed as cell viability at 10^-5 M incubated for 48 hrs by sulforhodamine B assay relative to control; conditions: OVCAR-3, 48 h, read-out: Activity
# [5] = system: A549; assay: Antiproliferative activity against human A549 cells assessed as cell viability at 10^-5 M incubated for 48 hrs by sulforhodamine B assay relative to control; conditions: A549, 48 h, read-out: Activity
# [6] = system: NCI/ADR-RES; assay: Antiproliferative activity against human NCI-ADR-RES cells assessed as cell viability at 10^-5 M incubated for 48 hrs by sulforhodamine B assay relative to control; conditions: read-out: Activity
# [7] = system: COLO 205; assay: Antiproliferative activity against human COLO205 cells assessed as cell viability at 10^-5 M incubated for 48 hrs by sulforhodamine B assay relative to control; conditions: COLO 205, 48 h, read-out: Activity
# [8] = system: MDA-MB-231; assay: Antiproliferative activity against human MDA-MB-231 cells assessed as cell viability at 10^-5 M incubated for 48 hrs by sulforhodamine B assay relative to control; conditions: MDA-MB-231, 48 h, read-out: Activity
# [9] = system: ACHN; assay: Antiproliferative activity against human ACHN cells assessed as cell viability at 10^-5 M incubated for 48 hrs by sulforhodamine B assay relative to control; conditions: read-out: Activity
# [10] = system: SK-MEL-28; assay: Antiproliferative activity against human SK-MEL-28 cells assessed as cell viability at 10^-5 M incubated for 48 hrs by sulforhodamine B assay relative to control; conditions: SK-MEL-28, 48 h, read-out: Activity
# [11] = system: HT-29; assay: Antiproliferative activity against human HT-29 cells assessed as cell viability at 10^-5 M incubated for 48 hrs by sulforhodamine B assay relative to control; conditions: HT-29, 48 h, read-out: Activity
# [12] = system: PC-3; assay: Antiproliferative activity against human PC3 cells assessed as cell viability at 10^-5 M incubated for 48 hrs by sulforhodamine B assay relative to control; conditions: PC-3, 48 h, read-out: Activity
# [13] = system: UACC-257; assay: Antiproliferative activity against human UACC257 cells assessed as cell viability at 10^-5 M incubated for 48 hrs by sulforhodamine B assay relative to control; conditions: UACC-257, 48 h, read-out: Activity
# [14] = system: SN12C; assay: Antiproliferative activity against human SN12C cells assessed as cell viability at 10^-5 M incubated for 48 hrs by sulforhodamine B assay relative to control; conditions: read-out: Activity
# [15] = system: OVCAR-8; assay: Antiproliferative activity against human OVCAR8 cells assessed as cell viability at 10^-5 M incubated for 48 hrs by sulforhodamine B assay relative to control; conditions: OVCAR-8, 48 h, read-out: Activity
# [16] = system: 786-0; assay: Antiproliferative activity against human 786-0 cells assessed as cell viability at 10^-5 M incubated for 48 hrs by sulforhodamine B assay relative to control; conditions: 786-0, 48 h, read-out: Activity
# [17] = system: HCT-15; assay: Antiproliferative activity against human HCT15 cells assessed as cell viability at 10^-5 M incubated for 48 hrs by sulforhodamine B assay relative to control; conditions: HCT-15, 48 h, read-out: Activity
# [18] = system: MDA-MB-435; assay: Antiproliferative activity against human MDA-MB-435 cells assessed as cell viability at 10^-5 M incubated for 48 hrs by sulforhodamine B assay relative to control; conditions: MDA-MB-435, 48 h, read-out: Activity
# [19] = system: UACC-62; assay: Antiproliferative activity against human UACC62 cells assessed as cell viability at 10^-5 M incubated for 48 hrs by sulforhodamine B assay relative to control; conditions: UACC-62, 48 h, read-out: Activity
# [20] = system: HL-60(TB); assay: Antiproliferative activity against human HL-60(TB) cells assessed as cell viability at 10^-5 M incubated for 48 hrs by sulforhodamine B assay relative to control; conditions: HL-60, 48 h, read-out: Activity
# [21] = system: SNB-75; assay: Antiproliferative activity against human SNB75 cells assessed as cell viability at 10^-5 M incubated for 48 hrs by sulforhodamine B assay relative to control; conditions: SNB-75, 48 h, read-out: Activity
# [22] = system: UO-31; assay: Antiproliferative activity against human UO31 cells assessed as cell viability at 10^-5 M incubated for 48 hrs by sulforhodamine B assay relative to control; conditions: UO-31, 48 h, read-out: Activity
# [23] = system: K562; assay: Antiproliferative activity against human K562 cells assessed as cell viability at 10^-5 M incubated for 48 hrs by sulforhodamine B assay relative to control; conditions: K562, 48 h, read-out: Activity
# [24] = system: NCI-H522; assay: Antiproliferative activity against human NCI-H522 cells assessed as cell viability at 10^-5 M incubated for 48 hrs by sulforhodamine B assay relative to control; conditions: NCI-H522, 48 h, read-out: Activity
# [25] = system: CAKI-1; assay: Antiproliferative activity against human Caki1 cells assessed as cell viability at 10^-5 M incubated for 48 hrs by sulforhodamine B assay relative to control; conditions: CAKI-1, 48 h, read-out: Activity
# [26] = system: HOP-62; assay: Antiproliferative activity against human HOP62 cells assessed as cell viability at 10^-5 M incubated for 48 hrs by sulforhodamine B assay relative to control; conditions: HOP-62, 48 h, read-out: Activity
# [27] = system: KM12; assay: Antiproliferative activity against human KM12 cells assessed as cell viability at 10^-5 M incubated for 48 hrs by sulforhodamine B assay relative to control; conditions: KM12, 48 h, read-out: Activity
# [28] = system: RPMI-8226; assay: Antiproliferative activity against human RPMI8226 cells assessed as cell viability at 10^-5 M incubated for 48 hrs by sulforhodamine B assay relative to control; conditions: RPMI-8226, 48 h, read-out: Activity
SMILES,viability at 10 µM [1],viability at 10 µM [2],viability at 10 µM [3],viability at 10 µM [4],viability at 10 µM [5],viability at 10 µM [6],viability at 10 µM [7],viability at 10 µM [8],viability at 10 µM [9],viability at 10 µM [11],viability at 10 µM [12],viability at 10 µM [13],viability at 10 µM [14],viability at 10 µM [15],viability at 10 µM [16],viability at 10 µM [17],viability at 10 µM [18],viability at 10 µM [19],viability at 10 µM [20],viability at 10 µM [21],other results
COc1cc2c(c(OC)c1OC)C(=O)NC1C2CC(O)C(O)C1O (racemic),98.9%,91.4%,106%,112%,98.4%,108%,108%,106%,99.7%,107%,96.5%,100%,104%,97.3%,94.9%,104%,110%,94.1%,99.3%,102%,viability at 10 µM [10]: 111%; viability at 10 µM [22]: 87.1%; viability at 10 µM [23]: 96.6%; viability at 10 µM [24]: 97.7%; viability at 10 µM [25]: 94.1%; viability at 10 µM [26]: 102%; viability at 10 µM [27]: 108%; viability at 10 µM [28]: 102%
COc1cc2c(c3c1OCCO3)C(=O)NC1C2CC(O)C(O)C1O (racemic),99.6%,77.7%,102%,101%,93.7%,111%,111%,103%,108%,102%,95.3%,97.5%,99.8%,95.2%,95.6%,102%,110%,99.3%,96.7%,100%,viability at 10 µM [10]: 106%; viability at 10 µM [22]: 89.8%; viability at 10 µM [23]: 106%; viability at 10 µM [24]: 93%; viability at 10 µM [25]: 93.4%; viability at 10 µM [26]: 100%; viability at 10 µM [27]: 95%; viability at 10 µM [28]: 100%
CCCOc1cc2c(cc1OCC)C1CC(O)C(O)C(O)C1NC2=O (racemic),101%,110%,108%,112%,107%,105%,110%,118%,107%,107%,97.1%,104%,112%,104%,101%,112%,105%,117%,101%,95.3%,viability at 10 µM [22]: 88.9%; viability at 10 µM [23]: 105%; viability at 10 µM [24]: 96.7%; viability at 10 µM [25]: 95.9%; viability at 10 µM [26]: 104%; viability at 10 µM [27]: 108%; viability at 10 µM [28]: 104%
COc1c2c(cc3c1C(=O)NC1C3CC(O)C(O)C1O)OCCO2 (racemic),102%,91.6%,104%,104%,96.5%,113%,103%,109%,103%,106%,97.7%,98.8%,103%,100%,97.4%,102%,108%,96.7%,95.4%,99.3%,viability at 10 µM [10]: 106%; viability at 10 µM [22]: 86.4%; viability at 10 µM [23]: 95.6%; viability at 10 µM [24]: 93.5%; viability at 10 µM [25]: 94%; viability at 10 µM [26]: 99.9%; viability at 10 µM [27]: 99.1%; viability at 10 µM [28]: 102%
CCOc1cc2c(c(OC)c1OCC)C(=O)NC1C2CC(O)C(O)C1O (racemic),95.6%,86.4%,95.8%,102%,84.3%,105%,116%,107%,104%,98.3%,96.9%,98.2%,104%,99.8%,96.1%,99.5%,107%,97.3%,86.8%,98.8%,viability at 10 µM [10]: 105%; viability at 10 µM [22]: 96.1%; viability at 10 µM [23]: 98.3%; viability at 10 µM [24]: 93.3%; viability at 10 µM [25]: 90.1%; viability at 10 µM [26]: 104%; viability at 10 µM [27]: 103%; viability at 10 µM [28]: 101%
CCOc1cc2c(c(OCC)c1OCC)C(=O)NC1C2CC(O)C(O)C1O (racemic),101%,82.8%,101%,104%,95.8%,108%,115%,121%,105%,104%,89.4%,101%,108%,102%,97.9%,104%,104%,101%,96.1%,93%,viability at 10 µM [10]: 107%; viability at 10 µM [22]: 88.4%; viability at 10 µM [23]: 98.4%; viability at 10 µM [24]: 89.2%; viability at 10 µM [25]: 94.2%; viability at 10 µM [26]: 102%; viability at 10 µM [27]: 103%; viability at 10 µM [28]: 102%
O=C1NC2C(CC(O)C(O)C2O)c2cc3c(cc21)OCCO3 (racemic),95.5%,101%,107%,111%,109%,107%,111%,109%,105%,105%,103%,107%,105%,107%,102%,103%,107%,103%,101%,98.3%,viability at 10 µM [22]: 93.2%; viability at 10 µM [23]: 104%; viability at 10 µM [24]: 101%; viability at 10 µM [25]: 94.4%; viability at 10 µM [26]: 103%; viability at 10 µM [27]: 108%; viability at 10 µM [28]: 107%
